Data published in patent US20240425502A1, “BICYCLIC HETEROAROMATIC COMPOUNDS AND THEIR USE AS PEST CONTROL AGENTS” (PI INDUSTRIES LTD., priority 2021, published 2024).

How the values were obtained:
Type in all cases: in vivo
Bemisia tabaci = Bemisia tabaci leaf dip test (brinjal leaves, whitefly adults); conditions: foliar, 72 h after release, dead and moribund combined, compared to untreated control, read-out: percent mortality
Method: The leaf dip method was used for testing, wherein the required quantity of the compound was weighed and dissolved in a tube containing a solvent solution. The tube was put on a vortex at 2000 rpm for 90 min for proper mixing and then the mixture was diluted with a 0.01% Triton-X solution to the desired test concentration. Brinjal leaves were dipped in the compound solution for 10 seconds, shade dried for 20 min and then placed, with the abaxial side of the leaf up, on 4 ml of a 1% agar-agar solution in respective container caps. Known numbers of freshly emerged whitefly adults were collected, using a modified aspirator, and released into a perforated container in which the cap containing the treated leaf was placed. The containers were kept in a plant growth chamber at a temperature of 25° C. and a relative humidity of 70%. Observations on dead, moribund and alive adults were recorded 72 h after the release. Percent mortality was calculated by combining dead and moribund adults and comparing the result to the one of the untreated control. The compounds 32 53 58 79 80 81 82 84 87 88 89 94 95 96 101 102 103 104 105 106 107 108 109 112 113 114 115 116 117 118 119 120 123 124 125 126 127 130 135 138 139 140 144 145 147 150 154 156 158 159 164 167 168 169 170 171 188 189 191 198 199 200 201 202 206 207 208 209 210 213 216 223 224 225 227 228 231 232 233 234 235 236 238 242 243 244 246 and 247 recorded≥70 percent mortality @ 300 PPM.

Myzus persicae = Myzus persicae leaf dip test (capsicum leaves, third instar nymphs); conditions: foliar, 72 h after release, dead and moribund combined, compared to untreated control, read-out: percent mortality
Nilaparvata lugens = Nilaparvata lugens seedling dip test (paddy seedlings, third instar nymphs); conditions: 72 h after release, dead and moribund combined, compared to untreated control, read-out: percent mortality

Measured: mortality at 300 ppm

O=c1c2cccn(Cc3cnc(Cl)nc3)c-2nc(=S)n1-c1ccc(Cl)cc1 [Compound 210, 3-(4-chlorophenyl)-8-((2-chloropyrimidin-5-yl)methyl)-2-thioxo-2,8-dihydropyrido[2,3-d]pyrimidin-4(3H)-one]
≥ 70%: all assays above

O=c1nc2n(Cc3cnc(Cl)nc3)cccc-2c(=O)n1-c1ccc(F)c(Br)c1 [Compound 234, 3-(3-bromo-4-fluorophenyl)-8-((2-chloropyrimidin-5-yl)methyl)pyrido[2,3-d]pyrimidine-2,4(3H,8H)-dione]
≥ 70%: all assays above

O=c1nc2n(Cc3cnc(Cl)nc3)cccc-2c(=O)n1-c1cccc(Br)c1 [Compound 231, 3-(3-bromophenyl)-8-((2-chloropyrimidin-5-yl)methyl)pyrido[2,3-d]pyrimidine-2,4(3H,8H)-dione]
≥ 70%: all assays above

O=c1nc2n(Cc3cnc(Cl)nc3)cccc-2c(=O)n1-c1ccc(F)c(C(F)(F)F)c1 [Compound 213, 8-((2-chloropyrimidin-5-yl)methyl)-3-(4-fluoro-3-(trifluoromethyl)phenyl)pyrido[2,3-d]pyrimidine-2,4(3H,8H)-dione]
≥ 70%: all assays above

O=c1nc2n(Cc3cnc(Cl)nc3)cccc-2c(=O)n1-c1cccc(F)c1 [Compound 118, 8-((2-chloropyrimidin-5-yl)methyl)-3-(3-fluorophenyl)pyrido[2,3-d]pyrimidine-2,4(3H,8H)-dione]
≥ 70%: all assays above

O=c1nc2n(Cc3cnc(Cl)nc3)cccc-2c(=O)n1-c1ccc(Cl)cc1 [Compound 82, 3-(4-chlorophenyl)-8-((2-chloropyrimidin-5-yl)methyl)pyrido[2,3-d]pyrimidine-2,4(3H,8H)-dione]
≥ 70%: all assays above

O=c1nc2n(Cc3cnc(Cl)nc3)cccc-2c(=O)n1-c1ccc(F)cc1F [Compound 207, 8-((2-chloropyrimidin-5-yl)methyl)-3-(2,4-difluorophenyl)pyrido[2,3-d]pyrimidine-2,4(3H,8H)-dione]
≥ 70%: all assays above

O=c1nc2n(Cc3cnc(Cl)nc3)cccc-2c(=O)n1-c1ccc(Cl)c(F)c1 [Compound 208, 3-(4-chloro-3-fluorophenyl)-8-((2-chloropyrimidin-5-yl)methyl)pyrido[2,3-d]pyrimidine-2,4(3H,8H)-dione]
≥ 70%: all assays above

O=c1nc2n(Cc3cnc(Cl)nc3)cccc-2c(=O)n1-c1ccc(OCC(F)(F)F)cc1 [Compound 216, 8-((2-chloropyrimidin-5-yl)methyl)-3-(4-(2,2,2-trifluoroethoxy)phenyl)pyrido[2,3-d]pyrimidine-2,4(3H,8H)-dione]
≥ 70%: all assays above

O=c1nc2n(Cc3cnc(Cl)nc3)cccc-2c(=O)n1-c1cc(F)cc(F)c1 [Compound 140, 8-((2-chloropyrimidin-5-yl)methyl)-3-(3,5-difluorophenyl)pyrido[2,3-d]pyrimidine-2,4(3H,8H)-dione]
≥ 70%: all assays above

O=c1nc2n(Cc3ccc(Cl)nc3)cccc-2c(=O)n1-c1cc(Cl)cc(C(F)(F)F)c1 [Compound 109, 3-(3-chloro-5-(trifluoromethyl)phenyl)-8-((6-chloropyridin-3-yl)methyl)pyrido[2,3-d]pyrimidine-2,4(3H,8H)-dione]
≥ 70%: all assays above
